Source: patent US20210121505A1, “COMPOSITIONS AND METHODS FOR TREATING INFLAMMATORY BOWEL DISEASES” (Seres Therapeutics, Inc., priority 2018, published 2021)

Columns and labels:
[1] = test system: LPS-stimulated peripheral blood mononuclear cells (PBMCs); experiment: TNF-α and IL-10 secretion assay, LPS-stimulated PBMCs; assay type: cell-based, Human; details: LPS-activated PBMCs; bile acid 12.5, 25, 50 μM; LPS 1 ng/mL; FIGS. 4A and 4B
Procedure: To better understand the possible relationship between the increased level of certain secondary bile acids and ulcerative colitis remission, monocytes and PBMCs were activated with LPS in the presence of varying concentrations of different primary and secondary bile acids in their conjugated and unconjugated forms. The amount of TNF-α and IL-10 produced by the activated cells was measured as described below.
Human buffy coat was obtained from Bioreclamation and shipped overnight on ice. Buffy coat was diluted 1:1 with PBS and layered on top of a Ficoll-Paque (GE Healthcare Cat #17-1440-03) in 50 mL falcon tubes. Samples were spun at 500×g for 20 min at room temperature with no brake. PBMCs were aspirated at the […] gradient layer and washed 3 times with PBS. Cells were counted with a hemocytometer to determine cell viability and concentration. Cells were plated onto 96 well plate and incubated at 37 C, 5% CO2 for 1 hour. Following this, bile acids were added at a final concentration of 12.5 μM, 25 μM and 50 μM for one hour prior to addition of LPS (1 ng/mL). After incubation of 16-20 hours, the cell culture media were collected for cytokine analysis. Cytokines were assayed using the Milliplex Human Cytokine kit (Luminex; Millipore), assaying IL-10 and TNF-α. Monocytes were isolated from PBMCs using the Miltenyi Biotec Pan Monocyte Isolation Kit (Cat No: 130-096-537) as per manufacturer's instructions and assayed as described above.

[2] = test system: intestinal epithelial cells (HT29); experiment: IL-8 secretion assay, TNF-α-stimulated intestinal epithelial cells; assay type: cell-based; details: bile acid 62.5, 125, 250 μM, 1.25 ng/mL TNF-α, relative to no bile acid control, FIG. 6
Procedure: Since IBD primarily affects the intestinal tissues, whether the anti-inflammatory effects observed in monocytes and PBMCs were also true in intestinal epithelial cells (HT29) was assessed as described below.
HT29 cells, cultured in McCoys Medium supplemented with 10% FBS, GlutaMAX and Pen/Strep were plated at a density of 50 k cells/well in 96-well format and allowed to grow for 5 days until fully confluent. Culture medium was changed every two days. On day 5, cells were pre-treated for 1 hour with 250 μM, 125 μM or 62.5 μM bile acid compounds before exposure to 1.25 ng/mL TNF-α. Cells were incubated overnight (16 h) and culture supernatants were collected for IL-8 protein quantification by ELISA. IL-8 levels of test samples were normalized to inflammatory controls, DMSO pre-treated samples (i.e., no bile acids) that were exposed to the 1.25 ng/mL TNF-α.

In the case of `C[C@H](CCC(=O)NCCS(=O)(=O)O)[C@H]1CC[C@H]2[C@@H]3CC[C@@H]4C[C@H](O)CC[C@]4(C)[C@H]3C[C@H](O)[C@]12C` [tDCA, tauro-deoxycholic acid], the “anti-inflammatory effects (higher IL-10, lower TNF-α)” value [1] is reported as “greatest anti-inflammatory effects” and the IL-8 production [2] is reported as “decreased IL-8 production in a dose-dependent manner”.
For `C[C@H](CCC(=O)NCCS(=O)(=O)O)[C@H]1CC[C@H]2[C@@H]3CC[C@@H]4C[C@H](OS(=O)(=O)O)CC[C@]4(C)[C@H]3CC[C@]12C` [tLCA, tauro-sulfo-lithocholic acid], the “anti-inflammatory effects (higher IL-10, lower TNF-α)” value [1] was “greatest anti-inflammatory effects” and the IL-8 production [2] was “decreased IL-8 production in a dose-dependent manner”.
With `CC(CCC(=O)NCC(=O)O)C1CCC2C3CCC4CC(O)CCC4(C)C3CC(O)C12C` (stereo not drawn) [gDCA, glyco-deoxycholic acid] the “anti-inflammatory effects (higher IL-10, lower TNF-α)” value [1] was “greatest anti-inflammatory effects” and the IL-8 production [2] was “decreased IL-8 production in a dose-dependent manner”.
